Source: paper PMC4447944 (The Journal of Biological Chemistry, 2015)

Columns and labels:
p53 Lys370 methylation = test: Western blot time course and subcellular fractionation, KYSE-150 cells stably expressing FLAG-SMYD2; format: cell-based, human
Procedure: 5 × 10^6 KYSE-150 cells or KYSE-150 cells stably overexpressing SMYD2 were harvested and separated into subcellular fractions using the Subcellular Protein Fractionation kit for cultured cells (Thermo Scientific) according to the manufacturer's instructions. Lysates were reduced, boiled, subjected to 4–20% SDS-PAGE, and transferred to nitrocellulose membranes. […] Each membrane was then incubated with ECL anti-rabbit or anti-mouse IgG HRP-linked whole antibody (GE Healthcare) followed by detection with SuperSignal West Femto Maximum Sensitivity Substrate (Thermo Scientific) on a ChemiDoc^TM XRS system (Bio-Rad). Primary tumor lysates in RIPA buffer were obtained from Crownbio Bioscience. Cancer cell lines were obtained from the German Collection of Microorganisms and Cell Cultures GmbH (DSMZ), the Korean Cell Line Bank, the Japanese Collection of Research Bio-Resources, or the American Type Culture Collection (ATCC). Tumor cells were lysed in buffer containing 50 mM Tris-HCl, pH 7.5, 500 mM NaCl, 1% Nonidet P-40, 0.25% sodium deoxycholate, 20 mM NaF, protease inhibitor mixture (Roche Applied Science), and phosphatase inhibitor mixtures I and II (Sigma). Tumor or cell lysates were boiled, subjected to 4–20% SDS-PAGE, and transferred to nitrocellulose membrane. Each membrane was blocked in Odyssey Blocking Buffer and incubated with custom-made mouse monoclonal anti-SMYD2 or mouse monoclonal anti-β-actin (Sigma) antibody followed by detection with IRDye680RD goat anti-mouse IgG on the Odyssey Imager.

hACVR1 = target: T1, hACVR1 (Homo sapiens, UniProt Q04771); test: KINOMEscan; format: binding
T1 construct: purchased DiscoverX (KINOMEscan platform)

hASK2 = target: T2, hASK2 (Homo sapiens, UniProt O95382); test: KINOMEscan; format: binding
T2 construct: purchased DiscoverX

hAURKA = target: T3, hAURKA (Homo sapiens, UniProt O14965); test: KINOMEscan; format: binding
T3 construct: purchased DiscoverX

hAURKB = target: T4, hAURKB (Homo sapiens, UniProt Q96GD4); test: KINOMEscan; format: binding
T4 construct: purchased DiscoverX

hAXL = target: T5, hAXL (Homo sapiens, UniProt P30530); test: KINOMEscan; format: binding
T5 construct: purchased DiscoverX

bacPKNB = target: T6, bacPKNB (Mycobacterium tuberculosis, UniProt P9WI81); test: KINOMEscan; format: binding
T6 construct: purchased DiscoverX

hBMPR1B = target: T7, hBMPR1B (Homo sapiens, UniProt O00238); test: KINOMEscan; format: binding
T7 construct: purchased DiscoverX

hBUB1 = target: T8, hBUB1 (Homo sapiens, UniProt O43683); test: KINOMEscan; format: binding
T8 construct: purchased DiscoverX

hCTK = target: T9, hCTK (Homo sapiens, UniProt P42679); test: KINOMEscan; format: binding
T9 construct: purchased DiscoverX (KINOMEscan platform)

hEGFR = target: T10, hEGFR (Homo sapiens, UniProt P00533); test: KINOMEscan; format: binding
T10 construct: purchased DiscoverX

hFRK = target: T11, hFRK (Homo sapiens, UniProt P42685); test: KINOMEscan; format: binding
T11 construct: purchased DiscoverX

hIKK-epsilon = target: T12, hIKK-epsilon (Homo sapiens, UniProt Q14164); test: KINOMEscan; format: binding
T12 construct: purchased DiscoverX (KINOMEscan panel)

hLKB1 = target: T13, hLKB1 (Homo sapiens, UniProt Q15831); test: KINOMEscan; format: binding
T13 construct: purchased DiscoverX (KINOMEscan platform)

hRSK4(Kin.Dom.1-N-term) = target: T14, hRSK4(Kin.Dom.1-N-term) (Homo sapiens, UniProt Q9UK32); test: KINOMEscan; format: binding
T14 construct: hRSK4(Kin.Dom.1-N-term); purchased DiscoverX (KINOMEscan platform)

hSBK1 = target: T15, hSBK1 (Homo sapiens, UniProt Q52WX2); test: KINOMEscan; format: binding
T15 construct: purchased DiscoverX (KINOMEscan platform)

hSGK3 = target: T16, hSGK3 (Homo sapiens, UniProt Q96BR1); test: KINOMEscan; format: binding
T16 construct: purchased DiscoverX (KINOMEscan platform)

hSRPK1 = target: T17, hSRPK1 (Homo sapiens, UniProt Q96SB4); test: KINOMEscan; format: binding
T17 construct: purchased DiscoverX (KINOMEscan platform)

hTLK1 = target: T18, hTLK1 (Homo sapiens, UniProt Q9UKI8); test: KINOMEscan; format: binding
T18 construct: purchased DiscoverX

hTNK2 = target: T19, hTNK2 (Homo sapiens, UniProt Q07912); test: KINOMEscan; format: binding
T19 construct: purchased DiscoverX

hTTK = target: T20, hTTK (Homo sapiens, UniProt P33981); test: KINOMEscan; format: binding
T20 construct: purchased DiscoverX

hYSK1 = target: T21, hYSK1 (Homo sapiens, UniProt O00506); test: KINOMEscan; format: binding
T21 construct: purchased DiscoverX

hPPARγ = target: T22, hPPARγ (Homo sapiens, UniProt P37231); test: Nuclear hormone receptor assay (Eurofins-CEREP); settings: read-out: Relative IC50
T22 construct: Eurofins-CEREP

hOPRm1 = hOPRm1 (Homo sapiens, UniProt P35372); test: cAMP Potentiation (Eurofins-CEREP); settings: @ 1 μM
hM2 = target: T23, hM2 (Homo sapiens, UniProt P08172); test: β-arrestin Potentiation (Eurofins-CEREP); settings: @ 10 μM
T23 sequence (P08172 1-466): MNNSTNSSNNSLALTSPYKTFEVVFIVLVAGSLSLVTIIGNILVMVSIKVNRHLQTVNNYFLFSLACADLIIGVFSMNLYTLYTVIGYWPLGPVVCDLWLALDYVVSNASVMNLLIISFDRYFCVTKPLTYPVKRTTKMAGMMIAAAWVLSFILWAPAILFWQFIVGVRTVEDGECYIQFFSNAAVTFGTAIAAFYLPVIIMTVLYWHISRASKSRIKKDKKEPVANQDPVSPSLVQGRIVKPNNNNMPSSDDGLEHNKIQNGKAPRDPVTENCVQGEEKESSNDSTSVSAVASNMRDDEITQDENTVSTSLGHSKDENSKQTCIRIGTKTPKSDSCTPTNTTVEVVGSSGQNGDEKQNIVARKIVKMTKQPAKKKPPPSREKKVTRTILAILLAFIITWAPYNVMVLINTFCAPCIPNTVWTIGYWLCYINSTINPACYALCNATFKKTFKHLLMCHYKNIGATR

hM3 = hM3 (Homo sapiens, UniProt P20309); test: Calcium Mobilization Potentiation (Eurofins-CEREP); settings: @ 10 μM

T17 sequence (Q96SB4 whole entry): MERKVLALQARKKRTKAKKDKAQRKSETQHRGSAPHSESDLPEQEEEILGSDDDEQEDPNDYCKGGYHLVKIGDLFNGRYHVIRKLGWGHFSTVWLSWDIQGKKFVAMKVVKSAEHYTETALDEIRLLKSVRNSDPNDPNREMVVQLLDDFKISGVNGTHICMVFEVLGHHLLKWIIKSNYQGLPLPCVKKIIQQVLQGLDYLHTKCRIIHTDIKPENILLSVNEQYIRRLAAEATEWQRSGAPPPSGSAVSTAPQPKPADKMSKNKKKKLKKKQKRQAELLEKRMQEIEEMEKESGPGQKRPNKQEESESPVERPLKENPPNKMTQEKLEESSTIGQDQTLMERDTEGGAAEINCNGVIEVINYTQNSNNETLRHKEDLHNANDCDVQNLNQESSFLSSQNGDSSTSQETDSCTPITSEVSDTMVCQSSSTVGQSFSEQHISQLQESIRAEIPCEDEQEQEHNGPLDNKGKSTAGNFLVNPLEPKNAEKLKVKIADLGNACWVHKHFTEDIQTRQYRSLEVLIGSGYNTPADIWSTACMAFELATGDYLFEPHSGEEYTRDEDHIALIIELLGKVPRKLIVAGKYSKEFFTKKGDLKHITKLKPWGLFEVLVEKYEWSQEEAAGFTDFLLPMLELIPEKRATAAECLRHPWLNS
T6 sequence (P9WI81 whole entry): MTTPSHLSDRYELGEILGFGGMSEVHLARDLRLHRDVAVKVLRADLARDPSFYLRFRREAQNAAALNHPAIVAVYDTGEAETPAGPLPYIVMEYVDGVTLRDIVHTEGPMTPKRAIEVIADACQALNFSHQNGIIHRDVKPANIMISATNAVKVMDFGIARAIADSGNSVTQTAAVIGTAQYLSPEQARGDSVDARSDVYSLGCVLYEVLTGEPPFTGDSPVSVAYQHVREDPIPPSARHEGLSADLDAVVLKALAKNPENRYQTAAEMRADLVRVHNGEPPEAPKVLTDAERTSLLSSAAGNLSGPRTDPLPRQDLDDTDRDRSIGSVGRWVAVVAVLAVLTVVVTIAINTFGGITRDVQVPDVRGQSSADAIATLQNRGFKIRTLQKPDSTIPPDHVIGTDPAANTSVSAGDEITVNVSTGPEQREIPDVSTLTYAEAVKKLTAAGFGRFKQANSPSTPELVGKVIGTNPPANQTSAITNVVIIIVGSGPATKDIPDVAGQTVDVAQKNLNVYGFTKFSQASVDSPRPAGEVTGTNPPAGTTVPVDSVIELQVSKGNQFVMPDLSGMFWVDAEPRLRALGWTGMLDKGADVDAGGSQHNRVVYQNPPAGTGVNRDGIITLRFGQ
T3 sequence (O14965 whole entry): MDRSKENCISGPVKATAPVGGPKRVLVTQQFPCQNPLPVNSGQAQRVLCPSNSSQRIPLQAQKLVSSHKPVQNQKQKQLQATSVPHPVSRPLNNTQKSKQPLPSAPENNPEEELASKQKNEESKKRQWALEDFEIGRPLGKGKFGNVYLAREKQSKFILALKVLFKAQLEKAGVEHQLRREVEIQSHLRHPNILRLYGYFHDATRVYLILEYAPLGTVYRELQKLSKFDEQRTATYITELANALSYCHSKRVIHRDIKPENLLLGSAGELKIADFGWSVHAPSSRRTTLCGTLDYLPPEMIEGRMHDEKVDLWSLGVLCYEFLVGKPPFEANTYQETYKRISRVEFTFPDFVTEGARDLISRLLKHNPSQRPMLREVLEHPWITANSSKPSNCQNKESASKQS
T7 sequence (O00238 14-502): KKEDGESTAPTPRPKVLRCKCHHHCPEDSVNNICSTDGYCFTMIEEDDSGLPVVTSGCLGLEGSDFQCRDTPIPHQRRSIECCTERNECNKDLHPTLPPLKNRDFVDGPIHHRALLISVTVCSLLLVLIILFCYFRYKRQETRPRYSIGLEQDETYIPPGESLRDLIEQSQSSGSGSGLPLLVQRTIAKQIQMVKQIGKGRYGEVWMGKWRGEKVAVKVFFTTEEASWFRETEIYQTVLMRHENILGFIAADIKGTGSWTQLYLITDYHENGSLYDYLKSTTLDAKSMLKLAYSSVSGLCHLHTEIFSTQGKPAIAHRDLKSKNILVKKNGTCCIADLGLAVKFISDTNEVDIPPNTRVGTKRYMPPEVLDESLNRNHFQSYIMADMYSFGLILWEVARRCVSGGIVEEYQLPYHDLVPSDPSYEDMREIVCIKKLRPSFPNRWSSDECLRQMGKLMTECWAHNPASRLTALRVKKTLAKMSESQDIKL
T2 sequence (O95382 whole entry): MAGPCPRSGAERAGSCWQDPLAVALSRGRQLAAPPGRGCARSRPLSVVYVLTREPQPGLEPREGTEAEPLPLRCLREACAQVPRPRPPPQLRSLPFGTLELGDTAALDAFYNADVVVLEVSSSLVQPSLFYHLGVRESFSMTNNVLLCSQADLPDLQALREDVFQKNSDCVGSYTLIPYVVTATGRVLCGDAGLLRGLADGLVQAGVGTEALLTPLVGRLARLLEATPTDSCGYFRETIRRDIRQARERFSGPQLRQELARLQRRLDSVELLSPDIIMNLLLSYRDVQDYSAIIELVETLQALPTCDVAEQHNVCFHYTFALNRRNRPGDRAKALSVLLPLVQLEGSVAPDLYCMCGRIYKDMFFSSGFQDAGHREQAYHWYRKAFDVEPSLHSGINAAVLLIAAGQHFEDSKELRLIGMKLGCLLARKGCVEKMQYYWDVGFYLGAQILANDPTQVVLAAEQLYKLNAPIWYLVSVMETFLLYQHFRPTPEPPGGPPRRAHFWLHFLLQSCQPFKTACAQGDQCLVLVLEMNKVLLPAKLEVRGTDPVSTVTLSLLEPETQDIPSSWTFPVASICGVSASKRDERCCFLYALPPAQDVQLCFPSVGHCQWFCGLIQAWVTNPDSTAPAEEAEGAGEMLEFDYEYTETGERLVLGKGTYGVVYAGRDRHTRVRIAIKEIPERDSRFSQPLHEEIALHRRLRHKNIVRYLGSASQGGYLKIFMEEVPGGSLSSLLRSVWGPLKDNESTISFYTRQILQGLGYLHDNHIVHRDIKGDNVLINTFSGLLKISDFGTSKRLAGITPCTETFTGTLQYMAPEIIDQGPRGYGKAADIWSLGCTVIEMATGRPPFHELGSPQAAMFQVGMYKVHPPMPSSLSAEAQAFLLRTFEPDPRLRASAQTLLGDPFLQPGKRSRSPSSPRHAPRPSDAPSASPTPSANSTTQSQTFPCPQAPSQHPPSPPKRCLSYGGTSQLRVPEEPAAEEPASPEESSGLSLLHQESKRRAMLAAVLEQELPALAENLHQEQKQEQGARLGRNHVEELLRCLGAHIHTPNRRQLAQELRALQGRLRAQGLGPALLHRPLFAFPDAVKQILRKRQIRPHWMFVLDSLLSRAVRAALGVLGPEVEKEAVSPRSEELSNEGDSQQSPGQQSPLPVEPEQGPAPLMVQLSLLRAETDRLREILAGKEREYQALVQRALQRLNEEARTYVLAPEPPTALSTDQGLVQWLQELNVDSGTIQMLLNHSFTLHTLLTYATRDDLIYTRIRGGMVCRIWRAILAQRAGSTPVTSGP
T18 sequence (Q9UKI8 whole entry): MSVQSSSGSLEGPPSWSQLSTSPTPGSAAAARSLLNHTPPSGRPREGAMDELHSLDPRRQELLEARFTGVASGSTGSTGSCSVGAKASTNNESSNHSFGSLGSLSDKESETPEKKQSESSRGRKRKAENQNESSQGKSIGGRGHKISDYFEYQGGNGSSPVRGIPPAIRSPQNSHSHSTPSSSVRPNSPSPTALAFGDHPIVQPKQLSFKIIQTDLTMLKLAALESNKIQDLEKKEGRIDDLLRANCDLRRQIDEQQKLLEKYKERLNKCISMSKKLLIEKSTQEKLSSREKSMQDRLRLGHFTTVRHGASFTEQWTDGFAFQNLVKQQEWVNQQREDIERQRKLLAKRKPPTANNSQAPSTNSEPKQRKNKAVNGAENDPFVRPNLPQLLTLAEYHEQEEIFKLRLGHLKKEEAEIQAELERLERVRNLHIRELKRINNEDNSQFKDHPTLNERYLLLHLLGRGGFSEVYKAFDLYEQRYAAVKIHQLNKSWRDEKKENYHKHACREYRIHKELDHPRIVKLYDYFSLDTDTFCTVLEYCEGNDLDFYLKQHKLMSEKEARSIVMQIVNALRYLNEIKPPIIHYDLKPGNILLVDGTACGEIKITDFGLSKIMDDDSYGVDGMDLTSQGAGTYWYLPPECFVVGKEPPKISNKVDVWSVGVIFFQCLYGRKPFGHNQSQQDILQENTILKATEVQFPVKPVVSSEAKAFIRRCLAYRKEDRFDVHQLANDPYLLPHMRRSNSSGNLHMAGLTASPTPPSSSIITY
T9 sequence (P42679 whole entry): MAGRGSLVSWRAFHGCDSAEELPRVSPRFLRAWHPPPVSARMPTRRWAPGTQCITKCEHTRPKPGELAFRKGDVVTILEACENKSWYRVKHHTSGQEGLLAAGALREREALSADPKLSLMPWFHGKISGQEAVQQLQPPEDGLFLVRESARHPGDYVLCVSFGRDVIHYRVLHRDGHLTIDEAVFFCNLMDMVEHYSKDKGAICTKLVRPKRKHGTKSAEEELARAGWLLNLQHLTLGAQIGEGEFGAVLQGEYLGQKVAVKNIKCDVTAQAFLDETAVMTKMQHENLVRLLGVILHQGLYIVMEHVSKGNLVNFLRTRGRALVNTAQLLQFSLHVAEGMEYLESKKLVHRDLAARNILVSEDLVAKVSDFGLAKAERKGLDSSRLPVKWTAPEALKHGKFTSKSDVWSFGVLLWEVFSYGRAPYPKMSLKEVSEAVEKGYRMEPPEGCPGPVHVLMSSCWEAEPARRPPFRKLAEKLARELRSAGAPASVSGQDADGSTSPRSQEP
T14 sequence (Q9UK32 73-330 limits assumed): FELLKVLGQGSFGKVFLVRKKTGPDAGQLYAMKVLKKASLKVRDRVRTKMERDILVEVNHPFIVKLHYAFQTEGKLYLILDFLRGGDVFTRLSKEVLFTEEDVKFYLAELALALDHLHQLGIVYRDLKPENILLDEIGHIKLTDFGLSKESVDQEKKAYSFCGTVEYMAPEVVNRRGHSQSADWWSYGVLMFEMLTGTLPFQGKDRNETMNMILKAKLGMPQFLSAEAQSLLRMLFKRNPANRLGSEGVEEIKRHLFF

Structure (SMILES): Cc1cn(CCN2CCN(c3ccccc3-c3cc(C#N)cc(C(=O)NCCCN4CCCC4)c3)CC2)c2ccccc12 [LLY-507, 3-cyano-5-{2-[4-[2-(3-methylindol-1-yl)ethyl]piperazin-1-yl]-phenyl}-N-[(3-pyrrolidin-1-yl)propyl]benzamide]
- time by which significant reductions in p53 Lys370 methylation occurred (p53 Lys370 methylation; 5 μM LLY-507, SMYD2-overexpressing KYSE-150): ≤ 18 h
- total levels of p53 (p53 Lys370 methylation; KYSE-150 FLAG-SMYD2): not significantly affected
- reduction of Lys370 methylation on cytoplasmic p53 (p53 Lys370 methylation; cytoplasmic fraction, KYSE-150 FLAG-SMYD2): 50%
- reduction of Lys370 methylation on nuclear p53 (p53 Lys370 methylation; nuclear fraction, KYSE-150 FLAG-SMYD2): 25%
- IC50 (hACVR1): > 20 µM
- IC50 (hASK2): > 20 µM
- IC50 (hAURKA): > 20 µM
- IC50 (hAURKB): > 20 µM
- IC50 (hAXL): > 20 µM
- IC50 (bacPKNB): > 20 µM
- IC50 (hBMPR1B): > 20 µM
- IC50 (hBUB1): > 20 µM
- IC50 (hCTK): > 20 µM
- IC50 (hEGFR): > 20 µM
- IC50 (hFRK): > 20 µM
- IC50 (hIKK-epsilon): > 20 µM
- IC50 (hLKB1): > 20 µM
- IC50 (hRSK4(Kin.Dom.1-N-term)): > 20 µM
- IC50 (hSBK1): > 20 µM
- IC50 (hSGK3): > 20 µM
- IC50 (hSRPK1): > 20 µM
- IC50 (hTLK1): > 20 µM
- IC50 (hTNK2): > 20 µM
- IC50 (hTTK): > 20 µM
- IC50 (hYSK1): > 20 µM
- IC50 (hPPARγ): > 10 µM
- % Effect, Potentiation (hOPRm1): 9.6%
- % Effect, Potentiation (hM2): -32.2%
- % Effect, Potentiation (hM3): -18%
